Here are results for two compounds from publication PMC10077475, “DG9-conjugated morpholino rescues phenotype in SMA mice by reaching the CNS via a subcutaneous administration” (JCI Insight, 2023).

One data set deals with severe SMA mouse model. Description: Whole-body plethysmography, breathing function at PD7. Format: in vivo. Conditions: for respiratory parameters under hypoxia (11% O2): 40 mg/kg s.c. at PD0, PD7. An excerpt: The majority of patients with SMA suffer from compromised breathing functions and rely on an external source of breathing support. To evaluate the effects of DG9-PMO treatment on breathing function, we performed whole-body plethysmography recordings at PD7 under normoxic (21% O2) and hypoxic (11% O2) conditions (Figure 3A). […] The NT mice on the other hand had slow, irregular breathing denoted by a higher coefficient of variation of frequency (CV, a measure of relative variability) and marked apneas (absence of airflow/pressure changes for a period equivalent to or greater than 2 complete respiratory cycles) (Figure 3, B and F).
Measurements were performed in whole-body, cylindrical, transparent, plexiglass plethysmographs (Validyne Engineering) that had 1 inflow and 2 outflow ports for the continuous delivery of fresh room air and removal of expired carbon dioxide ([75], [76]). […] The gas was mixed with gas mixer (GSM-3, CWE), delivered from compressed pure oxygen and pure nitrogen cannisters, being monitored using 0–200 mL/min gas regulators (Porter Instrument Company). […] For PD30, the plethysmograph was recorded at RT of around 22°C. Pressure changes were detected with a pressure transducer (DP 103; Validyne) and signal conditioner (CD-15; Validyne), recorded with data acquisition software (Axoscope) via analog-digital board (Digidata 1322A). […] VT and fR were measured with blood pressure settings using Labchart 8 (ADInstruments). Threshold levels for bursts were set, and bursts were then automatically detected so that frequency (calculated from cycle duration) and VT (calculated from maximal pressure minus minimal pressure) values were interpreted. […]
Respiratory parameters were calculated over an average of 1 minute of continuous plethysmography recordings. […]

The test system of data set [1] is neuromuscular junctions of SMA mice. The data set is described as follows: NMJ staining, innervation of quadriceps and intercostal muscles. Format: in vivo, mouse. The settings on record: 40 mg/kg s.c. at PD0, quadriceps and intercostal muscles at PD30, 300–500 NMJs per group. An excerpt:
We assessed the NMJ architecture of the quadriceps and the intercostal muscles at PD30 to understand the phenotypic rescue following injections at PD0 (Figure 5A). […] Although there was no statistical significance, we observed upregulation of both atrogenes in the unconjugated PMO–treated mice and upregulation of only Atrogin-1 in MOE-treated mice in the quadriceps muscle at approximately PD30. […] We also evaluated the expressions of muscle specific kinase (MuSK) and acetylcholine receptor alpha (AChRα), which play a crucial role in NMJ formation and maintenance ([46]–[50]). […] The findings corroborate our hypothesis that DG9-PMO treatment rescues the crosstalk between the muscle and the neurons by improving muscle pathology and the characteristics of NMJs.
NMJ staining was carried out as previously described ([71]). Briefly, the quadriceps and the intercostal muscle were fixed in 4 % paraformaldehyde (PFA) for 2 hours. The muscles were washed quickly with PBS and blocked with 5% goat serum and 2 % Triton-X in PBS for 1 hour at RT. This was followed by overnight incubation at 4°C with the primary mouse monoclonal antibodies anti-neurofilament clone 2H3 (1:100) and […] (1:500) (DSHB). […] The synaptic area was quantified using ImageJ. […]

`CC(=O)N[C@@H](Cc1ccc(O)cc1)C(=O)N[C@@H](C)C(=O)N[C@H](CCCNC(=N)N)C(=O)N[C@H](C(=O)N[C@@H](CCCNC(=N)N)C(=O)N[C@@H](CCCNC(=N)N)C(=O)N[C@H](CCCNC(=N)N)C(=O)NCC(=O)N1CCC[C@H]1C(=O)N[C@@H](CCCNC(=N)N)C(=O)NCC(=O)N[C@@H](Cc1ccc(O)cc1)C(=O)N[C@@H](C)C(=O)N[C@H](CCCNC(=N)N)C(=O)N[C@H](C(=O)N[C@@H](CCCNC(=N)N)C(=O)N[C@@H](CCCNC(=N)N)C(=O)N[C@H](CCCNC(=N)N)C(=O)NCC(=O)N1CCC[C@H]1C(=O)N[C@@H](CCCNC(=N)N)C(=O)N[C@H](CCCNC(=N)N)C(=O)N1C[C@@H](COP(=O)(N(C)C)N2C[C@@H](COP(=O)(N(C)C)N3C[C@@H](COP(=O)(N(C)C)N4C[C@@H](COP(=O)(N(C)C)N5C[C@@H](COP(=O)(N(C)C)N6C[C@@H](COP(=O)(N(C)C)N7C[C@@H](COP(=O)(N(C)C)N8C[C@@H](COP(=O)(N(C)C)N9C[C@@H](COP(=O)(N(C)C)N%10C[C@@H](COP(=O)(N(C)C)N%11C[C@@H](COP(=O)(N(C)C)N%12C[C@@H](COP(=O)(N(C)C)N%13C[C@@H](COP(=O)(N(C)C)N%14C[C@@H](COP(=O)(N(C)C)N%15C[C@@H](COP(=O)(N(C)C)N%16C[C@@H](COP(=O)(N(C)C)N%17C[C@@H](COP(=O)(N(C)C)N%18C[C@@H](COP(=O)(N(C)C)N%19CCC(C(N)=O)CC%19)O[C@@H](n%19cc(C)c(=O)[nH]c%19=O)C%18)O[C@@H](n%18ccc(N)nc%18=O)C%17)O[C@@H](n%17cnc%18c(N)ncnc%18%17)C%16)O[C@@H](n%16ccc(N)nc%16=O)C%15)O[C@@H](n%15cc(C)c(=O)[nH]c%15=O)C%14)O[C@@H](n%14cc(C)c(=O)[nH]c%14=O)C%13)O[C@@H](n%13cc(C)c(=O)[nH]c%13=O)C%12)O[C@@H](n%12ccc(N)nc%12=O)C%11)O[C@@H](n%11cnc%12c(N)ncnc%12%11)C%10)O[C@@H](n%10cc(C)c(=O)[nH]c%10=O)C9)O[C@@H](n9cnc%10c(N)ncnc%109)C8)O[C@@H](n8cnc9c(N)ncnc98)C7)O[C@@H](n7cc(C)c(=O)[nH]c7=O)C6)O[C@@H](n6cnc7c(=O)[nH]c(N)nc76)C5)O[C@@H](n5ccc(N)nc5=O)C4)O[C@@H](n4cc(C)c(=O)[nH]c4=O)C3)O[C@@H](n3cnc4c(=O)[nH]c(N)nc43)C2)O[C@@H](n2cnc3c(=O)[nH]c(N)nc32)C1)C(C)C)C(C)C` (some centres unmarked) [DG9-PMO]: the “respiratory parameters under hypoxia (11% O2)” value with severe SMA mouse model is “increase in the respiratory parameters fR, VE, and VT relative to normoxia”. Also, the “respiratory phenotype under normoxic conditions (21% O2)” value in the data set on severe SMA mouse model (40 mg/kg s.c. at PD0, PD7, majority of the mice) is on record as “did not exhibit any respiratory phenotype”. Also, in data set [1], the “full innervation of peripheral synapses (NMJs)” value is “more than 60%”.
“unconjugated PMO: PMO targeting ISS-N1 intron 7 (5′ TCACTTTCATAATGCTGG 3′), purchased from Gene Tools LLC (all phosphorodiamidate morpholino (PMO)) [reference compound]”: the “respiratory parameters under hypoxia (11% O2)” value in the data set with severe SMA mouse model was “slow, weak, and irregular breathing when compared with the Hets”. The “full innervation of peripheral synapses (NMJs)” value in data set [1] is given as 40%–50%.
